Results reported in ChEMBL document CHEMBL1201862, “PubChem BioAssay data set” (2004).
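Tested at 5 concentrations; 48 h exposure; 96-well plates; endpoints linearly interpolated, else capped at highest concentration. The concentration for 50% growth inhibition is given as GI50.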 Activity calls are given as the source filed them. Rule as the data show it: active = GI50 up to about 1.1 µM and inactive = higher.

What was measured:
Assay in all cases: DTP human tumour cell line panel, 48 h
[1] = test system: MOLT-4
[2] = test system: SF-268
[3] = test system: UACC-62
[4] = test system: MDA-N
[5] = test system: SR
[6] = test system: SK-MEL-5
[7] = test system: HCC 2998
[8] = test system: BT-549
[9] = test system: T47D
[10] = test system: TK-10
[11] = test system: HL-60
[12] = test system: Hs-578T
[13] = test system: DU-145
[14] = test system: HOP-62
[15] = test system: SW-620
[16] = test system: ACHN
[17] = test system: HCT-116
[18] = test system: SF-539
[19] = test system: OVCAR-3
[20] = test system: OVCAR-4

Measured: GI50

Cc1ccc(NC(=O)/C(Cc2cc(=O)oc3cc(O)ccc23)=N\NC(=O)C[N+](C)(C)C)cc1C
inactive: [1] > 100 µM | [2] > 100 µM | [3] > 100 µM | [4] > 100 µM | [5] > 100 µM | [6] > 100 µM | [7] > 100 µM | [8] > 100 µM | [9] > 100 µM | [10] > 100 µM | [11] > 100 µM | [12] > 100 µM | [13] > 100 µM | [14] > 100 µM | [15] > 100 µM | [16] > 100 µM | [17] > 100 µM | [18] > 100 µM | [19] > 100 µM | [20] > 100 µM

CN/N=C(/CCN1CCCC1)CC(c1ccccc1)c1c(O)c2ccccc2oc1=O (stereo not given)
inactive: [1] > 65.3 µM | [2] > 100 µM | [3] > 100 µM | [4] > 100 µM | [5] > 94.6 µM | [6] > 75.5 µM | [7] > 100 µM | [8] > 100 µM | [9] 49.4 µM | [10] > 100 µM | [11] 61.5 µM | [12] > 100 µM | [13] > 100 µM | [14] > 100 µM | [15] > 100 µM | [16] > 100 µM | [17] > 100 µM | [18] > 100 µM | [19] > 100 µM | [20] > 100 µM

CCn1c(SCC(=O)NNC(=S)Nc2ccc([N+](=O)[O-])cc2)nc2ccccc2c1=O
inactive: [1] 23.2 µM | [2] 60.1 µM | [3] 48.9 µM | [4] > 100 µM | [5] 23 µM | [6] 79.6 µM | [7] 50.1 µM | [8] 53.8 µM | [9] 64.3 µM | [10] 68.9 µM | [11] 40.7 µM | [12] > 100 µM | [13] > 100 µM | [14] 81.1 µM | [15] 86.5 µM | [16] > 100 µM | [17] 35.3 µM | [18] > 100 µM | [19] 39.2 µM | [20] 48.5 µM

c1ccc2c(c1)nc1n2CCSC1
inactive: [1] > 100 µM | [2] > 100 µM | [3] > 100 µM | [4] > 100 µM | [5] > 100 µM | [6] > 100 µM | [7] > 100 µM | [8] > 100 µM | [9] > 100 µM | [10] > 100 µM | [11] > 100 µM | [12] > 100 µM | [13] > 100 µM | [14] > 100 µM | [15] > 100 µM | [16] > 100 µM | [17] > 100 µM | [18] > 100 µM | [19] > 100 µM | [20] > 100 µM

CC(=O)OCC1OC(N2C(S)=C(C#N)C(c3ccco3)C(C(C)=O)=C2c2ccccc2)C(OC(C)=O)C(OC(C)=O)C1OC(C)=O (stereo not given)
inactive: [1] > 100 µM | [2] > 100 µM | [3] 34 µM | [4] 26.2 µM | [5] > 100 µM | [6] 29 µM | [7] > 100 µM | [8] > 100 µM | [9] > 100 µM | [10] > 100 µM | [11] > 100 µM | [12] 17.7 µM | [13] 79.8 µM | [14] 16.9 µM | [15] 89.9 µM | [16] > 10 µM | [17] 51.9 µM | [18] 78.5 µM | [19] 77.6 µM | [20] 13.4 µM

C#CCCCOc1ncccn1
inactive: [1] > 100 µM | [2] > 100 µM | [3] > 100 µM | [4] > 100 µM | [5] > 100 µM | [6] > 100 µM | [7] > 100 µM | [8] > 100 µM | [9] > 100 µM | [10] > 100 µM | [11] > 100 µM | [12] > 100 µM | [13] > 100 µM | [14] > 100 µM | [15] > 100 µM | [16] > 100 µM | [17] > 100 µM | [18] > 100 µM | [19] > 100 µM | [20] > 100 µM

CCOC(=O)CC1C(O)C(=O)N(C)C1c1ccccc1 (stereo not given)
inactive: [1] > 100 µM | [2] > 100 µM | [3] > 100 µM | [4] > 100 µM | [5] > 100 µM | [6] > 100 µM | [7] > 100 µM | [8] > 100 µM | [9] > 100 µM | [10] > 100 µM | [11] > 100 µM | [12] > 100 µM | [13] > 100 µM | [14] > 100 µM | [15] > 100 µM | [16] > 100 µM | [17] > 100 µM | [18] > 100 µM | [19] > 100 µM | [20] > 100 µM
